Measurements as given in publication PMC10799935, “Discovery of a peripheral 5HT2A antagonist as a clinical candidate for metabolic dysfunction-associated steatohepatitis” (Nature Communications, 2024).
In brackets after ≈: the same amount, converted by molar mass. Several values for one entry are separate records, joined by “and”; a condition that tells them apart may be missing. Equal values may be shown once.

Assays:
physchem = details: pH 6.8, aqueous buffer
[1] = test system: lipogenesis-related genes; test: DIO mice: qRT-PCR of lipogenesis-related genes in liver; assay type: in vivo, mouse; details: for Fasn gene expression, Predicted (LS) mean diff. / Htr2a gene expression, Predicted (LS) mean diff. / Pparγ gene expression, Predicted (LS) mean diff. / Srebp1c gene expression, Predicted (LS) mean diff.: Tukey's multiple comparisons test; for Fasn gene expression, Predicted (LS) mean / Htr2a gene expression, Predicted (LS) mean / Pparγ gene expression, Predicted (LS) mean / Srebp1c gene expression, Predicted (LS) mean: vehicle = 1
Method: Total RNA extractions from harvested tissues were performed using TRIzol according to the manufacturer’s protocol. After TURBO DNase (Invitrogen) treatment, 2 μg of total RNA was used to generate complementary DNA with a High-Capacity cDNA Reverse Transcription Kit (Thermo Fisher Scientific). Quantitative RT-PCR was performed with Fast SYBR Green Master Mix (Thermo Fisher Scientific) and a Viia 7 Real-time PCR System (Thermo Fisher Scientific) according to the manufacturer’s instructions. Gene expression was relatively quantified based on the delta-delta Ct (threshold cycle) method with the beta-actin gene as a reference gene. The sequence of primers can be found in the Supporting Information (Supplementary Table 2).

CYP2D6 = CYP2D6 (Homo sapiens, UniProt P10635); test: in vitro
α-SMA = test: CDAHFD mice: α-SMA immunohistochemical staining; assay type: in vivo, mouse; design: α-SMA immunohistochemical staining (a-SMA area), individual mouse / α-SMA immunohistochemical staining (a-SMA area), Average: unit not given here; details: for α-SMA immunohistochemical staining (a-SMA area), Average / α-SMA immunohistochemical staining (a-SMA area), individual mouse: CDAHFD mice; for α-SMA immunohistochemical staining (a-SMA area), Average: group average n=5, CDAHFD+Vehicle 6.348, Vehicle 0.808; for α-SMA immunohistochemical staining (a-SMA area), individual mouse: individual animals No. 1-5 (Fig.4f)
Text: C57BL/6 J male mice were purchased from the Japan SLC. Inc (Hamamatsu, Japan). Mice (5 weeks old) were fed Teklad Certitied Irradiated Global 18% protein rodent diet purchased from Dooyeol Biotech Co. Ltd (Seoul, South Korea) during the acclimation period. The liver fibrosis/inflammation-induced groups were CDAHFD-fed (A06071302, Research diet). […] All animal experiments complied with the relevant ethical regulations.
Mouse liver tissues were fixed in 4% formalin solution (Sigma–Aldrich, St. Louis, MO, USA) and embedded in paraffin. 4-μm-thick liver sections were deparaffinized in xylene, and rehydrated through descending grades of ethanol. To evaluate liver fibrosis, sections were stained with Sirius red solution and subjected to immunohistochemical staining. Tissue sections, after deparaffinization, underwent a 16-hour incubation in a solution containing 0.1% Direct Red 80 (365548, Sigma-Aldrich) dissolved in Picric acid (P-201, Spectrum Chemical, CA, USA) for Sirius red staining. The sections were briefly immersed in a 0.01 N HCl solution (1129, Ducksan, Republic of Korea) for 2 min. and then rinsed with distilled water for destaining. Subsequently, the sections underwent dehydration through […] grades of ethanol. Immunohistochemical staining was performed using the Polyview Plus HRP-DAB (anti-Rabbit) Kit (ENZ-KIT159-0150, ENZO Life Science, NY, USA) following the manufacturers’ instructions. Deparaffinized sections were boiled in IHC-TekTM Epitope Retrieval solution (IW-1100, IHCWORLD, MD, USA) for 45 min., cooled for 1 h, incubated in a 3% H2O2 solution (69355-0350, JUNSEI, Japan) for 15 min., washed, and then incubated overnight with primary antibodies (α-SMA, ab5694, Abcam, 1:500 dilution; TNF-α, ab6671, Abcam, 1:100 dilution and IL-1β, ab9722, Abcam, 1:100 dilution). Subsequently, the sections were treated with Polyview Plus HRP for 2 h and developed with DAB chromogen/substrate. Stained […] sections were confirmed by light microscopy (Olympus BX53 upright microscope, Tokyo, Japan). The degree of hepatic fibrosis and immunohistochemical staining was quantified by morphometric analysis of stained liver sections using NIH ImageJ software.

Sequence of CYP2D6 (P10635 whole entry): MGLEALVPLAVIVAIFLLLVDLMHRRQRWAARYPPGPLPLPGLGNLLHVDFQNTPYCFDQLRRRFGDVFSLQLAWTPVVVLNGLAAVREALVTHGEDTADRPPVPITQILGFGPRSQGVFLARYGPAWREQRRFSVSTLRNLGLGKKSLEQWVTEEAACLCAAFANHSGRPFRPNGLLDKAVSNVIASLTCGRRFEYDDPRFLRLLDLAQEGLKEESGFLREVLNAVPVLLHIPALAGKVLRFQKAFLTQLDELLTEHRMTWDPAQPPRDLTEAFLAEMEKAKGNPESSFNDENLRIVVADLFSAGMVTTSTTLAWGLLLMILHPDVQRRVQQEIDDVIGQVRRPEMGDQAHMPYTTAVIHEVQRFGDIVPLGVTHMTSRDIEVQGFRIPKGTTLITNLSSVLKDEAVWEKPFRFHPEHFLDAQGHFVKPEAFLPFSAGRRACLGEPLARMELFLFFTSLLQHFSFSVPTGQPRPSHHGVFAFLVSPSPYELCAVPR

Cc1nc2n(c(=O)c1CCN1CCC(=C3c4ccc(Cl)cc4CCc4cccnc43)CC1)CCCC2O (stereo not drawn) [Compound 11c]
solubility (physchem): 1300 µg/mL (≈ 2510 µM) | Fasn gene expression, Predicted (LS) mean diff. ([1]; 11c 5mpk vs. 11c 10mpk): 0.1848 | Htr2a gene expression, Predicted (LS) mean diff. ([1]; 11c 5mpk vs. 11c 10mpk): 0.09643 | Pparγ gene expression, Predicted (LS) mean diff. ([1]; 11c 5mpk vs. 11c 10mpk): -0.1385 | Srebp1c gene expression, Predicted (LS) mean diff. ([1]; 11c 5mpk vs. 11c 10mpk): 0.2716 | Fasn gene expression, Predicted (LS) mean ([1]; 11c 5mpk): 0.7446 | Htr2a gene expression, Predicted (LS) mean ([1]; 11c 5mpk): 0.5102 | Pparγ gene expression, Predicted (LS) mean ([1]; 11c 5mpk): 0.8935 | Srebp1c gene expression, Predicted (LS) mean ([1]; 11c 5mpk): 0.7676 | Fasn gene expression, Predicted (LS) mean ([1]; 11c 10mpk): 0.5598 | Htr2a gene expression, Predicted (LS) mean ([1]; 11c 10mpk): 0.4138 | Pparγ gene expression, Predicted (LS) mean ([1]; 11c 10mpk): 1.032 | Srebp1c gene expression, Predicted (LS) mean ([1]; 11c 10mpk): 0.496 | expression of Fasn ([1]; DIO mice, 10mpk): decreased | expression of Srebp1c ([1]; DIO mice, 10mpk): reduced | expression of lipogenesis-related genes ([1]; DIO mice, liver, vs vehicle): reduced | Fasn gene expression, Predicted (LS) mean diff. ([1]; Vehicle vs. 11c 5mpk): 0.2554 | Htr2a gene expression, Predicted (LS) mean diff. ([1]; Vehicle vs. 11c 5mpk): 0.4898 | Pparγ gene expression, Predicted (LS) mean diff. ([1]; Vehicle vs. 11c 5mpk): 0.1065 | Srebp1c gene expression, Predicted (LS) mean diff. ([1]; Vehicle vs. 11c 5mpk): 0.2324 | Fasn gene expression, Predicted (LS) mean diff. ([1]; Vehicle vs. 11c 10mpk): 0.4402 | Htr2a gene expression, Predicted (LS) mean diff. ([1]; Vehicle vs. 11c 10mpk): 0.5862 | Pparγ gene expression, Predicted (LS) mean diff. ([1]; Vehicle vs. 11c 10mpk): -0.03198 | Srebp1c gene expression, Predicted (LS) mean diff. ([1]; Vehicle vs. 11c 10mpk): 0.504 | inhibition at 10 µM (CYP2D6): 26.3% | α-SMA immunohistochemical staining (a-SMA area), Average (α-SMA; 11c 5 mpk): 2.563 | α-SMA immunohistochemical staining (a-SMA area), individual mouse (α-SMA; 11c 5 mpk): 2.929 and 2.447 and 3.505 and 2.773 and 1.159 | α-SMA immunohistochemical staining (a-SMA area), Average (α-SMA; 11c 10mpk): 3.310 | α-SMA immunohistochemical staining (a-SMA area), individual mouse (α-SMA; 11c 10mpk): 3.665 and 3.079 and 3.824 and 3.446 and 2.538 | α-SMA expression (immunohistochemical staining) (α-SMA; CDAHFD-fed 11c vs CDAHFD-fed vehicle group): significant decrease
